Experimental data from patent publication US6720346B2, “Thiazole benzamide derivatives and pharmaceutical compositions for inhibiting cell proliferation” (Agouron Pharmaceuticals, Inc., priority 2001, dated 2004).
Structures can show the parent of a compound that is named as a salt.

Columns and labels:
[1] = biological target: T1, CDK2/cyclin A (Homo sapiens, UniProt P24941); experiment: Inhibition of CDK2/cyclin A retinoblastoma kinase activity (Ki; % inhibition); type: biochemical; conditions: for Ki: apparent Ki, CDK2/cyclin A, Rb substrate
T1 construct: made in house; host or cells: CDK2: insect cells (baculovirus); cyclin A: E. coli
In short: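 Radiometric filter assay of CDK2/proteolyzed cyclin A (baculovirus-expressed human CDK2, 10 or 19 nM) phosphorylating an Rb fragment with 25 μM [³²P/³³P]ATP in pH 7.4 HEPES, 2% DMSO, at 30 °C for 60 or 75 min under initial-rate conditions. Library compounds screened at 30 nM for % inhibition; apparent Ki from concentration series fit to competitive or tight-binding inhibition equations.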

[2] = system: HCT-116 cell line; experiment: Inhibition of cell growth, MTT tetrazolium salt assay; type: cell-based; conditions: for IC50: Homo sapiens, HCT-116, 120 h, MTT, three to five days
In short: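 Cells in McCoy's 5A medium were given 4 h before compound addition in 0.5% (v/v) DMSO, then incubated 3–5 days at 37 °C, 5% CO2. After 4 h with 0.2 mg/mL MTT, DMSO-solubilized formazan was read at 540 nm; 50% and 90% growth-inhibitory concentrations came from semi-log plots against vehicle controls.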

[3] = biological target: T2, human CDK4/cyclin D3 (Homo sapiens, UniProt P11802); experiment: Inhibition of CDK4/cyclin D retinoblastoma kinase activity (Ki; % inhibition); type: biochemical; conditions: for Ki: apparent Ki, CDK4/cyclin D3, Rb substrate
T2 construct: made in house; host or cells: insect cells co-infected with baculovirus vectors
In short: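 Insect-cell-expressed CDK4 with truncated cyclin D3 (1-264), 5 nM, phosphorylating His-tagged Rb fragment (386-928) with 25 μM [32/33P]ATP at pH 7.4, 30 °C, 20 min (60 min for tight binders). Filter capture, phosphorimager read; % inhibition at 30 nM compound, Ki from competitive or tight-binding fits.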

[4] = HCT-116 cells, 0.25 μM compound

T2 sequence (P11802 whole entry): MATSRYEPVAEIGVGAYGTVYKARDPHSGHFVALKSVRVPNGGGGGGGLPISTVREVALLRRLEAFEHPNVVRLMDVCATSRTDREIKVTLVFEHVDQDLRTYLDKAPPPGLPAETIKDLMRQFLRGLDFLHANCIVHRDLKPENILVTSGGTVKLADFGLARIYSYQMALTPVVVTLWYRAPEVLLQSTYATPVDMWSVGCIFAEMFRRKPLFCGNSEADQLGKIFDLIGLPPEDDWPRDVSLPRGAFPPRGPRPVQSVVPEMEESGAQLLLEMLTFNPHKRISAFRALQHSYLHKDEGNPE
T2 sequence (P30281 1-264 partner limits assumed): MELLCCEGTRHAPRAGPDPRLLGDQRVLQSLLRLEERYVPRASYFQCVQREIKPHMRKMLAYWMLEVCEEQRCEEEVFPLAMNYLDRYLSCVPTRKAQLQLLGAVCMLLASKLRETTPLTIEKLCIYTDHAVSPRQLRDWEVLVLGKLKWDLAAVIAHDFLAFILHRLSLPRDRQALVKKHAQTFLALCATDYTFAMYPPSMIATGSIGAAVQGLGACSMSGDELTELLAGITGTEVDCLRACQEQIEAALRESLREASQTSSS

SMILES	CDK2 % Inhibition at 0.03 μM ([1]; at 0.03 μM) [%]	HCT-116 % Inhibition at 0.1 μM ([2]; HCT-116, at 0.1 μM) [%]	HCT-116 % Inhibition at 0.25 μM ([2]; HCT-116, at 0.25 μM) [%]	CDK4 % Inhibition at 0.03 μM ([3]; at 0.03 μM) [%]	CDK2 % Inhibition at 0.03 μM ([1]; 0.03 μM compound) [%]	HCT-116 % Inhibition at 0.1 μM ([2]; HCT-116 cells, 0.1 μM compound) [%]	HCT-116 % Inhibition at 0.25 μM [2, 4] [%]	CDK4 % Inhibition at 0.03 μM ([3]; 0.03 μM compound) [%]	further results
CCC(COC)NC(=O)c1ccc(Nc2nc(N)c(C(=O)c3c(F)cccc3F)s2)cc1 (centres unmarked) [Example G159]	6	0	74	5	–	–	–	–	–
COC(=O)c1cccc(NC(=O)c2ccc(Nc3nc(N)c(C(=O)c4c(F)cccc4F)s3)cc2)c1 [Example G106]	7	0	61	7	–	–	–	–	–
COc1cc(NC(=O)c2ccc(Nc3nc(N)c(C(=O)c4c(F)cccc4F)s3)cc2)cc(OC)c1 [Example G86]	10	39	73	0	–	–	–	–	–
COCCN1CCN(C(=O)c2ccc(Nc3nc(N)c(C(=O)c4c(F)cccc4F)s3)cc2)CC1 [Example G362]	–	–	–	–	12	9	57	6	–
Nc1nc(Nc2ccc(C(=O)N3CCCC3)cc2)sc1C(=O)c1c(F)cccc1F [Example G47]	−15	–	53	6	–	–	–	–	–
CC(C)c1ccccc1NC(=O)c1ccc(Nc2nc(N)c(C(=O)c3c(F)cccc3F)s2)cc1 [Example G51]	9	–	89	−1	–	–	–	–	–
C#CCCN(CCCC)C(=O)c1ccc(Nc2nc(N)c(C(=O)c3c(F)cccc3F)s2)cc1 [Example G171]	4	30	47	16	–	–	–	–	–
CCCCN(CC)CCNC(=O)c1ccc(Nc2nc(N)c(C(=O)c3c(F)cccc3F)s2)cc1 [Example G331]	–	–	–	–	1	54	93	37	–
NC(=O)C(CO)NC(=O)c1ccc(Nc2nc(N)c(C(=O)c3c(F)cccc3F)s2)cc1 (centres unmarked) [Example G198]	–	–	–	–	19	9	44	42	–
Nc1nc(Nc2ccc(C(=O)NCC3CC3)cc2)sc1C(=O)c1c(F)cccc1F [Example G144]	0	0	57	11	–	–	–	–	–
Nc1nc(Nc2ccc(C(=O)NC3CCN(Cc4ccccc4)CC3)cc2)sc1C(=O)c1c(F)cccc1F [Example A13, 4-[4-Amino-5-(2,6-difluoro-benzoyl)-thiazol-2-ylamino]-N-(1-benzyl-piperidin-4-yl)-benzamide]	–	–	–	–	–	–	–	–	Ki [1]: 79 nM; IC50 [2]: 210 nM; Ki [3]: 9 nM
CCOC(CNC(=O)c1ccc(Nc2nc(N)c(C(=O)c3c(F)cccc3F)s2)cc1)OCC [Example G344]	–	–	–	–	25	24	50	18	–
CN1CC[C@@H](NC(=O)c2ccc(Nc3nc(N)c(C(=O)c4c(F)cccc4F)s3)cc2)C1 [Example A30, 4-[4-Amino-5-(2,6-difluoro-benzoyl)-thiazol-2-ylamino]-N-(1-methyl-pyrrolidin-3R-yl)-benzamide]	–	–	–	–	–	–	–	–	Ki [1]: 69 nM; IC50 [2]: 90 nM; Ki [3]: 7 nM
Nc1nc(Nc2ccc(C(=O)NCC3COc4ccccc4O3)cc2)sc1C(=O)c1c(F)cccc1F (centres unmarked) [Example G367]	–	–	–	–	38	22	71	15	–
CC1CC(NC(=O)c2ccc(Nc3nc(N)c(C(=O)c4c(F)cccc4F)s3)cc2)CC(C)(C)C1 (centres unmarked) [Example G112]	−11	6	57	13	–	–	–	–	–
CCOc1ccccc1CCNC(=O)c1ccc(Nc2nc(N)c(C(=O)c3c(F)cccc3F)s2)cc1 [Example G380]	–	–	–	–	−19	26	50	7	–
Cc1ccc(NC(=O)c2ccc(Nc3nc(N)c(C(=O)c4c(F)cccc4F)s3)cc2)cc1 [Example G197]	–	–	–	–	14	26	61	9	–
CCCN(CCc1ccccn1)C(=O)c1ccc(Nc2nc(N)c(C(=O)c3c(F)cccc3F)s2)cc1 [Example G322]	–	–	–	–	−12	13	50	4	–

SMILES	CDK2 % Inhibition at 0.03 μM ([1]; at 0.03 μM) [%]	HCT-116 % Inhibition at 0.1 μM ([2]; HCT-116, at 0.1 μM) [%]	HCT-116 % Inhibition at 0.25 μM ([2]; HCT-116, at 0.25 μM) [%]	CDK4 % Inhibition at 0.03 μM ([3]; at 0.03 μM) [%]	CDK2 % Inhibition at 0.03 μM ([1]; 0.03 μM compound) [%]	HCT-116 % Inhibition at 0.1 μM ([2]; HCT-116 cells, 0.1 μM compound) [%]	HCT-116 % Inhibition at 0.25 μM [2, 4] [%]	CDK4 % Inhibition at 0.03 μM ([3]; 0.03 μM compound) [%]	further results
C=CCN(C(=O)c1ccc(Nc2nc(N)c(C(=O)c3c(F)cccc3F)s2)cc1)C1CCCCC1 [Example G320]	–	–	–	–	−15	12	46	5	–
CN(Cc1ccccc1)C(=O)c1ccc(Nc2nc(N)c(C(=O)c3c(F)cccc3F)s2)cc1 [Example G3]	−1	–	50	4	–	–	–	–	–
CC(C)(CO)CNC(=O)c1ccc(Nc2nc(N)c(C(=O)c3c(F)cccc3F)s2)cc1 [Example G263]	–	–	–	–	2	26	54	24	–
Nc1nc(Nc2ccc(C(=O)N3CCC(O)C3)cc2)sc1C(=O)c1c(F)cccc1F (centres unmarked) [Example G55]	22	–	57	16	–	–	–	–	–
CN(CCC#N)C(=O)c1ccc(Nc2nc(N)c(C(=O)c3c(F)cccc3F)s2)cc1 [Example G296]	–	–	–	–	0	0	43	22	–
C[C@@H]1CN(CCNC(=O)c2ccc(Nc3nc(N)c(C(=O)c4c(F)cccc4F)s3)cc2)C[C@H](C)N1 [Example A57]	–	–	–	–	–	–	–	–	Ki [1]: 54 nM; IC50 [2]: 3800 nM; Ki [3]: 10 nM
Nc1nc(Nc2ccc(C(=O)NCCN3CCOCC3)cc2)sc1C(=O)c1c(F)cccc1F [Example G124]	10	0	64	17	–	–	–	–	–
CC(=O)NCCNC(=O)c1ccc(Nc2nc(N)c(C(=O)c3c(F)cccc3F)s2)cc1 [Example G142]	11	0	46	20	–	–	–	–	–
N#CCCN(Cc1cccnc1)C(=O)c1ccc(Nc2nc(N)c(C(=O)c3c(F)cccc3F)s2)cc1 [Example G316]	–	–	–	–	−2	1	56	11	–
CC(C)C(CO)NC(=O)c1ccc(Nc2nc(N)c(C(=O)c3c(F)cccc3F)s2)cc1 (centres unmarked) [Example G102]	−3	18	55	18	–	–	–	–	–
Nc1nc(Nc2ccc(C(=O)N[C@H](CO)CC3CCCCC3)cc2)sc1C(=O)c1c(F)cccc1F [Example G359]	–	–	–	–	−7	25	69	−5	–
Nc1nc(Nc2ccc(C(=O)NC3CCOC3=O)cc2)sc1C(=O)c1c(F)cccc1F (centres unmarked) [Example G129]	11	0	51	19	–	–	–	–	–
CSCCC(O)NC(=O)c1ccc(Nc2nc(N)c(C(=O)c3c(F)cccc3F)s2)cc1 (centres unmarked) [Example G108]	−5	0	60	12	–	–	–	–	–
Cn1ccnc1CNC(=O)c1ccc(Nc2nc(N)c(C(=O)c3c(F)cccc3F)s2)cc1 [Example A50, 4-[4-Amino-5-(2,6-difluoro-benzoyl)-thiazol-2-ylamino]-N-(1-methyl-1H-imidazol-2-ylmethyl)-benzamide Hydrochloride Salt]	–	–	–	–	–	–	–	–	Ki [1]: 20 nM; IC50 [2]: 170 nM; Ki [3]: 15 nM
Nc1nc(Nc2ccc(C(=O)NCCCN3CCOCC3)cc2)sc1C(=O)c1c(F)cccc1F [Example G132]	9	0	52	27	–	–	–	–	–
CC(C)N(Cc1ccccc1)C(=O)c1ccc(Nc2nc(N)c(C(=O)c3c(F)cccc3F)s2)cc1 [Example G70]	−4	–	53	10	–	–	–	–	–
Cc1cccc(CN(C)C(=O)c2ccc(Nc3nc(N)c(C(=O)c4c(F)cccc4F)s3)cc2)n1 [Example G315]	–	–	–	–	−1	7	50	11	–
